For twelve molecules, melting point and IC50 results are on record in patent publication US20040197268A1, “Method of imaging amyloid deposits using substituted rhodanine derivatives” (priority 1999, published 2004).

“And” between values parts separate entries of the source, which are not always exact repeats. Identical values can stand only once. Counter-ions that a name gives are not always drawn.

Series [1] addresses T1, Aβ(1-40) (Homo sapiens, UniProt P05067).
T1 construct: Soluble Aβ(1-40) peptide (Bachem, Torrance, Calif.); purchased Bachem, Torrance, Calif
Kind of series: BASSR (Beta-Amyloid Self-Seeding Radioassay), inhibitors of self-seeded amyloid fibril growth. The format is biochemical. The settings on record: 30 μM soluble Aβ(1-40) + 125I-labeled Aβ(1-40), pH 7.5, 37° C., 3 to 5 hours, filtration. As to the method:
BASSR (Beta-Amyloid Self-Seeding Radioassay)
(§1) An assay for inhibitors of self-seeded amyloid fibril growth
Assay Buffer—50 mM sodium phosphate, pH 7.5, 100 mM NaCl, 0.02% NaN3, 1 M urea (filter and store at 4° C.)
Soluble Aβ(1-40) peptide (Bachem, Torrance, Calif.)—2.2 mg/mL in deionized H2O (stored in aliquots at −20° C., keep on ice when thawed) will self-seed after 1 week storage. Typically, the solution should be stored until no lag phase is seen in the assay.
^125I-labeled Aβ(1-40)—150K-350K cpm/μL in 100% acetonitrile—0.1% trifluoroacetic acid (TFA)—1% β-mercaptoethanol (aliquots stored at −20° C.). ^125I-labeled Aβ(1-40) can be made in accordance with the procedure set forth by H. Levine, III in Neurobiol. Aging, 16:755 (1995), which is hereby incorporated by reference, or this reagent may be purchased from Amersham, Arlington Heights, Ill.
Final assay conditions: 30 μM soluble Aβ(1-40) in deionized water in assay buffer+20-50K cpm ^125I-labeled Aβ(1-40) per assay. Compound to be tested is dissolved in dimethylsulfoxide (DMSO), typically 5-50 mM stock, such that the final concentration of DMSO is <1% v/v in the assay.
Assay: Reaction mixture for 50 assays (on ice) is comprised of 0.1-0.2 μL of […] ^125I-labeled Aβ(1-40)+1 μL of soluble Aβ(1-40)+13.5 μL assay buffer per assay. The following are the amounts of the components of the reaction mixture sufficient for 50 assay wells.
1) Prepare reaction mixture above by mixing components and storing on ice.
2) Pipet 14.5 μL of reaction mixture into each of 50 wells on a polypropylene U-bottom 96-well microtiter plate on ice (Costar 3794).
3) Add 1.7 μL of diluted compound to be tested to each well in a column of eight, including solvent control. Serial 3-fold dilutions from 1 mM (100 μM final) in assay buffer−urea=7 dilutions+zero. Each 96-well plate can therefore accommodate 11 samples+1 Congo Red control (0.039-5 μM final in 2-fold steps).
4) Seal the plate with aluminum film (Beckman 538619) and incubate for 10 minutes on ice.
5) Raise the temperature to 37° C. and incubate for 3 to 5 hours (depending on the lot of the peptide).
6) Remove the aluminum film and add 200 μL/well of ice cold assay buffer with urea, collecting the radiolabeled fibrils by vacuum filtration through 0.2 μm pore size GVWP filters in 96-well plates (Millipore MAGV N22, Bedford, Mass.). Determine the radioactivity of the filters using standard methods well-known to those skilled in the art.

For series [2], the target named is T2, beta amyloid peptide Aβ(1-40) (Homo sapiens, UniProt P05067).
T2 construct: 0.5 mg/mL AP (140) peptide in 20% HFIP+0.1 μL/assay radioiodinated ^125I Aβ(1-40)
Kind of series: BAPA (Beta-Amyloid Peptide Aggregation), pH 6.0. The note with it: Aβ(1-40) 33 μM, pH 6.0, 2 to 4 hours at room temperature, filtration. The format is biochemical. As to the method:
BAPA (Beta-Amyloid Peptide Aggregation)
This assay is used to provide a measure of inhibition by a compound against the aggregation behavior of the beta amyloid peptide.
The purpose of this assay is to provide a higher volume method of assaying the amount of beta amyloid aggregation using an endpoint assay based on filtration. In this assay, hexafluoroisopropanol (HFIP) is used to break down the initial amyloid peptide to a monomer state and use a concentration of 33 μM which is high enough so that aggregation will occur at pH 6.0 in several hours.
β-Amyloid Peptide Aggregation, pH 6.0 (BAPA)
In a 96-well plate (Costar 3794), we add […] 50 mM Phosphate Buffer, pH 6.0, 10 μL 0.5 mg/mL AP (140) peptide in 20% HFIP+0.1 μL/assay radioiodinated ^125I Aβ(1-40) [^125I Aβ(1-40)], and 1 μL of the compound to be tested starting at 50 mM with a concentration of DMSO <1%. Then, we incubate for 2 to 4 hours at room temperature. We stop the reaction with […] of 50 mM phosphate buffer, pH 6.0, and filter it through a 0.2 μm 96-well filter plate (Millipore MAGU N22). We wash the filter plate with 100 μL of the same phosphate buffer. Aggregation was detected on a Microbeta counter after impregnating the filters with Meltilex (1450-441) and is corrected for background.

Another series addresses T3, Aβ(1-42) (Homo sapiens, UniProt P05067).
T3 construct: Required Aβ(1-42)(California Peptide) was dried from its hexafluoroisopropanol (HFIP) stock solution; purchased California Peptide
Nature of the series: BATYM Assay (Aβ(1-42) aggregation, Thioflavin T fluorescence). The format is biochemical. The note with it: Aβ 1-42 final concentration 100 μM, PBS pH 7.4, 37° C., 1 day, ThT fluorescence. How it is done:
Required Aβ(1-42)(California Peptide) was dried from its hexafluoroisopropanol (HFIP) stock solution. The Aβ(1-42) was dissolved in dimethylsulfoxide (DMSO) and then mixed with phosphate buffered saline, (PBS) (pH 7.4). The mixed Aβ(1-42) solution was filtered with a 0.2 μm Omnipore membrane syringe filter (Millipore, Bedford, Mass.). The compound to be tested in DMSO (50 times concentrate) was put into each well (0.5 μL/well) of a 96-well plate. The Aβ(1-42) solution was added into each well (24.5 μL/well). The plate was centrifuged at 1,000 g for 5 minutes and incubated at 37° C. for 1 day (Aβ 1-42; final concentration 100 μM).
After incubation Thioflavin T (ThT) (30 μM) solution in glycine-NaOH buffer (pH 8.5, 50 mM) was added into each well (250 μL/well), fluorescence was measured (ex. 440/20 nm; em 485/20 nm) using a fluorescence plate reader. The inhibitory activity was calculated as the reduction of fluorescence with the following formula:
inhibition (%)={(F(Aβ)−F(Aβ+compound)}/{F(Aβ)−F(solvent+compound)}×100
The IC50s were calculated by a curve fitting program using the following equation. The data were obtained from two different experiments in triplicate.
x=concentration of tested compound (M),

In series [3] the target is T1, Aβ(1-40). Kind of series: BASST (Beta-Amyloid Self-Seeding, ThioflavinT), inhibitors of self-seeded amyloid fibril growth. The class given is biochemical. The note with it: 30 μM soluble Aβ(1-40), pH 7.5, 37° C., 3 to 5 hours, thioflavin T fluorescence. How it is done:
BASST (Beta-Amyloid Self-Seeding, ThioflavinT)
as §1
Assay Buffer—50 mM sodium phosphate, pH 7.5, 100 mM NaCl, 0.02% NaN3, 1 M urea (filter and store at 4° C.).
Soluble Aβ(1-40)—2.2 mg/mL in deionized H2O (store in aliquots at −20° C., keep on ice when thawed) will self-seed after 1 week storage. Typically, the solution should be stored until no lag phase is seen in the assay.
Final assay conditions: 30 μM soluble Aβ(1-40) in deionized water in assay buffer. Compound to be tested is dissolved in DMSO, typically 5-50 mM stock, such that the final concentration of DMSO is <1% v/v in the assay.
Assay: Reaction mixture for 50 assays (on ice) comprised of 1 μL of soluble Aβ(1-40)+13.5 μL assay buffer per assay. The following are the amounts of the components of the reaction mixture that result in each of the 50 assay wells.
1) Prepare the reaction mix above by mixing the components and storing on ice.
2) Pipet […] of reaction mixture into each of 50 wells of a polystyrene U-bottom 96-well microtiter plate (Corning 25881-96) on ice.
3) Add […] of diluted compound to be tested to each well in a column of eight, including solvent control. Serial 3-fold dilutions from 1 mM (100 μM final) in assay buffer−urea=7 dilutions+zero. Each 96-well plate can therefore accommodate 11 samples+1 Congo Red control (0.039-5 μM final in 2-fold steps).
4) Seal the plate with aluminum film and incubate for 10 minutes on ice.
5) Raise the temperature to 37° C. and incubate for 3 to 5 hours (depends on the lot of the peptide).
6) Remove the aluminum film and add 250 μL/well of 5 μM thioflavin T (ThT) [T-3516, Sigma-Aldrich] in 50 mM glycine-NaOH, pH 8.5. Read fluorescence on a plate reader (ex=440 nm/20 nm; em=485 nm/20 nm) within 5 minutes.

T3 sequence (P05067 672-713 limits assumed): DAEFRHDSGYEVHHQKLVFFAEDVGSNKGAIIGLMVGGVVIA
T1 sequence (P05067 672-711 limits assumed): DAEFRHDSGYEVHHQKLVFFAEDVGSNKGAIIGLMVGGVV
T2 sequence (P05067 672-711 limits assumed): as above

In the case of `CCCCCCN(C)c1ccc(/C=C2\SC(=S)N(CCS(=O)(=O)O)C2=O)cc1` (as salt: sodium) [Example 1, (Z) 2-{5[4-(Hexyl-methyl-amino)benzylidene] 4-oxo-2-thioxo-thiazolidin-3-yl}-ethanesulfonic acid], the melting point (as a rule, the temperature of the solid-liquid transition) was over 250 °C.

As to `CCCCCCN(C)c1ccc(/C=C2\SC(=S)N(CCS(=O)(=O)O)C2=O)cc1` [Example 1, (Z) 2-{5[4-(Hexyl-methyl-amino)benzylidene] 4-oxo-2-thioxo-thiazolidin-3-yl}-ethanesulfonic acid], the IC50 (as a rule, the concentration that gives 50% inhibition) is over 100 µM on Aβ(1-40) [1], 23 µM in series [2], 1.72 µM at Aβ(1-42) and 1 µM at Aβ(1-40) [3].

Regarding `CCCCCCN(C)c1ccc(/C=C2\SC(=S)N(CCNC(C)=O)C2=O)cc1` [Example 14], the IC50 on Aβ(1-40) [1] was over 100 µM; in series [2], 30 µM; on Aβ(1-42) it was over 100 µM; against Aβ(1-40) [3] it was 0.22 µM.

Consider `CCCCCCN(C)c1ccc(/C=C2\SC(=S)N(CS(=O)(=O)O)C2=O)cc1` [Example 15, (Z) {5-[4-(n-Hexylmethylamine)-benzylidene]-4-oxo-2-thioxo-thiazolidin-3-yl}-methanesulfonic acid], for which the IC50 on Aβ(1-40) [1] is over 100 µM; in series [2], 8 µM; against Aβ(1-42) it was 3.39 µM; against Aβ(1-40) [3], over 100 µM.

For the molecule `CCCCN(CCCC)c1ccc(/C=C2\SC(=S)N(Cc3nnn[nH]3)C2=O)cc1` [Example 20, (Z) 5-(4-Dibutylamino-benzylidene)-3(H-tetrazol-5-ylmethyl)-2-thioxo-thiazolidin-4-one], the results for the 50% inhibitory concentration (IC50) (in series [2]; at Aβ(1-42); against Aβ(1-40) [3]) were over 100 µM, 2.04 µM and 2 µM, respectively.

On to `CCCCN(CCCC)c1ccc(/C=C2\SC(=S)N(CC(=O)NS(C)(=O)=O)C2=O)cc1` [Example 21, (Z) N-{2-[5-(4-Dibutylamino-benzylidene)-4-oxo-2-thioxo-thiazolidin-3-yl]-acetyl}-methanesulfonamide], for which the melting point lay within 219 to 222 °C. In addition, on Aβ(1-40) [1], the half-inhibitory concentration (IC50) was over 100 µM. For the same molecule, the IC50 in series [2] is over 100 µM. In addition, the IC50 on Aβ(1-42) turned out to be 2.91 µM.

Take `O=C(CN1C(=O)/C(=C/c2ccc(N3CC[C@@H]4CCCC[C@H]4C3)cc2)SC1=S)NS(=O)(=O)c1ccccc1` [Example 24, (Z) N-(2-{5-[(4aS,8aR)-4(Octahydro-isoquinolin-2-yl)benzylidene]-4-oxo-2-thioxo-thiazolidin-3-yl}-acetyl)-benzenesulfonamide]: the melting point worked out at 222 °C. In addition, the IC50 on Aβ(1-40) [1] is 6.5 µM and 10 µM and 6 µM. At Aβ(1-42), the IC50 stood at 3.84 µM. In addition, the IC50 at Aβ(1-40) [3] was 1 µM and 0.8 µM.

Take `CCCCN(CCCC)c1ccc(/C=C2\SC(=S)N(CC(=O)NS(=O)(=O)c3ccc(F)cc3)C2=O)cc1` [Example 25, (Z) N-{2-[5-(4-Dibutylamino-benzylidene)-4-oxo-2-thioxo-thiazolidin-3-yl]-acetyl}-4-fluoro-benzenesulfonamide]: the melting point turned out to be 125 °C. Moreover, the IC50 on Aβ(1-40) [1] is 6 µM. Further, the IC50 against Aβ(1-42) worked out at 2.38 µM. The 50% inhibitory concentration (IC50) against Aβ(1-40) [3] is 0.6 µM and 0.5 µM.

Molecule `CCCCN(CCCC)c1ccc(/C=C2\SC(=S)N(CCS(=O)(=O)NC(=O)c3ccc(F)cc3)C2=O)cc1` [Example 26, (Z) 2-[5-(4-Dibutylamino-benzytidene)-4-oxo-2-thioxo-thiazolidin-3-yl]-ethanesulfonic acid 4-fluoro-benzoylamide] displayed a melting point of 191 to 192 °C. Also, the IC50 on Aβ(1-40) [1] was 6.1 µM and 10 µM. For the same molecule, the IC50 on Aβ(1-42) turned out to be 2.14 µM.

Turning to `O=C1/C(=C/c2ccc(N3CCC4CCCCC4C3)cc2)SC(=S)N1Cc1cc(=O)c(O)co1` (stereo not shown) [Example 32, (Z) 3-(5-Hydroxy-4-oxo-4H-pyran-2-ylmethyl)-5-[4-(octahydro-isoquinolin-2-yl)benzylidene]-2-thioxo-thiazolidin-4-one], the IC50 is over 100 µM at Aβ(1-40) [1], 46 µM in series [2], 2.55 µM against Aβ(1-42) and 1 µM against Aβ(1-40) [3].

`CCCC1CCN(c2ccc(/C=C3\SC(=S)N(Cc4nnn[nH]4)C3=O)cc2)CC1` [Example 35]: the IC50 at Aβ(1-40) [1] was 15 µM; in series [2], over 60 µM; against Aβ(1-42) it was 3.31 µM; on Aβ(1-40) [3] it was 0.4 µM.

On Aβ(1-42), “(Z) 2-[5-(4-Hexyl-methyl-amino-benzylidene)-4-oxo-2-thioxo-thiazolidin-3-yl]-ethanesulfonic acid 4-fluoro-benzoylamide [Example 40]” had an IC50 of 2.84 µM.
